In patent US6630169B1, “Particulate delivery systems and methods of use” (priority 2000, dated 2003):
Residues, ends and D or L forms follow the SMILES beside them. *: point of attachment. 5FAM = O=C1OC2(c3ccc(O)cc3Oc3cc(O)ccc32)c2ccc(C(=O)*)cc21

Test: Bioavailability of fluorescent-labeled HA PulmoSpheres, plasma peptide by fluorometry
Assay type: in vivo
Settings: mice
Experimental: A formulation comprising fluoroscein-HA peptide (20% wt/wt) PulmoSpheres (f-HA-Pul) prepared as in Example IV was suspended in perflubron. Metofane anesthetized mice were inoculated intranasally (i.n.) with a […] volume of f-HA-Pul in perflubron, corresponding to […] of peptide dose. Blood samples were collected by ocular bleeding in heparin-treated tubes, the plasma was separated and the concentration of the peptide was measured by fluorometry. As a control, an intravenous i.v.) inoculation of […] of f-HA peptide in […] of sterile saline (n=4 for all groups) was used.

## CC[C@H](C)[C@H](NC(=O)[C@H](CCC(=O)O)NC(=O)[C@H](Cc1ccccc1)NC(=O)[C@H](CCCNC(=N)N)NC(=O)[C@H](CCC(=O)O)NC(=O)[C@H](Cc1ccccc1)NC(=O)[C@H](CO)NC(=O)c1ccc2c(c1)C(=O)OC21c2ccc(O)cc2Oc2cc(O)ccc21)C(=O)N[C@@H](Cc1ccccc1)C(=O)N1CCC[C@H]1C(=O)N[C@@H](CCCCN)C(=O)N[C@@H](CCC(=O)O)C(=O)O [f-HA peptide] (5FAM-SFERFEIFPKE-OH; N-terminus and C-terminus assumed)
  total clearance (elimination via urine): ≤ 6 h
mouse, in vivo, i.n., f-HA-Pul in perflubron
  Tmax: 20 min
mouse, in vivo, i.n., f-HA-Pul in perflubron, vs i.v. f-HA peptide in saline, read-out: absolute bioavailability
  bioavailability: ~5%
